Activity calls are given as the source filed them. No cut-off for these calls is given here. Starred links: 1 amine or outer side, 2 acyl side, 3 side chain; linkers in the order of their positions; H or OH if unused. Positions of bridges follow the written chain, without caps; N, C: chain ends. Non-standard residues stand in square brackets, D forms with d. Residues, ends and D or L forms follow the SMILES beside them. ξ: configuration not given here. mXylylene = c1cc(C[*:1])cc(C[*:2])c1; ξhCys = NC(CCS)C(=O)O
Tests used:
[1] = target: Envelope glycoprotein gp160 (Human immunodeficiency virus 1) (UniProt Q6QLK5); assay: Binding affinity to HIV1 GP41 using GP41 NHR derived N36 peptide assessed as melting temperature at 10 uM incubated for 30 mins by CD spectroscopy
[2] = test system: Human immunodeficiency virus 1; assay: Antiviral activity against X4 tropic HIV-1 subtype-B 3B infected in human MT2 cells or CEMx174 5.25 M7 cells assessed as reduction in p24 Gag protein production measured at 4 days post-infection by ELISA; format: functional, cell-based, HIV-1 group M; conditions: Human immunodeficiency virus 1, 3B, 96 h
[3] = target: Envelope glycoprotein gp160 (Human immunodeficiency virus 1) (UniProt Q6QLK5); assay: Binding affinity to HIV1 GP41 using GP41 NHR derived N36 peptide at 500 uM incubated for 30 mins by size exclusion HPLC analysis
[4] = test system: Human immunodeficiency virus 1; assay: Antiviral activity against R5 tropic HIV-1 subtype-B Bal infected in human MT2 cells or CEMx174 5.25 M7 cells assessed as reduction in p24 Gag protein production measured at 4 days post-infection by ELISA; format: functional, cell-based, HIV-1 group M; conditions: Human immunodeficiency virus 1, Bal, 96 h
[5] = target: Envelope glycoprotein gp160 (Human immunodeficiency virus 1) (UniProt Q6QLK5); assay: Binding affinity to HIV1 GP41 using GP41 NHR derived N36 peptide assessed as molecular weight at 150 uM incubated for 30 mins by sedimentation Velocity analysis
[6] = target: Envelope glycoprotein gp160 (Human immunodeficiency virus 1) (UniProt Q6QLK5); assay: Binding affinity to HIV1 GP41 using GP41 NHR derived N36 peptide assessed as formation of oligomeric complex at 100 uM incubated for 30 mins by Coomassie blue R250 staining based Native-PAGE analysis
[7] = target: Envelope glycoprotein gp160 (Human immunodeficiency virus 1) (UniProt Q6QLK5); assay: Binding affinity to HIV1 GP41 using GP41 NHR derived N36 peptide assessed as formation of secondary structure at 10 uM incubated for 30 mins by CD spectroscopy
[8] = Cytotoxicity against human TZM-bl cells assessed as reduction in viability after 2 days by XTT assay; format: cell-based

Chain of Envelope glycoprotein gp160 (Human immunodeficiency virus 1) (Q6QLK5 1-814): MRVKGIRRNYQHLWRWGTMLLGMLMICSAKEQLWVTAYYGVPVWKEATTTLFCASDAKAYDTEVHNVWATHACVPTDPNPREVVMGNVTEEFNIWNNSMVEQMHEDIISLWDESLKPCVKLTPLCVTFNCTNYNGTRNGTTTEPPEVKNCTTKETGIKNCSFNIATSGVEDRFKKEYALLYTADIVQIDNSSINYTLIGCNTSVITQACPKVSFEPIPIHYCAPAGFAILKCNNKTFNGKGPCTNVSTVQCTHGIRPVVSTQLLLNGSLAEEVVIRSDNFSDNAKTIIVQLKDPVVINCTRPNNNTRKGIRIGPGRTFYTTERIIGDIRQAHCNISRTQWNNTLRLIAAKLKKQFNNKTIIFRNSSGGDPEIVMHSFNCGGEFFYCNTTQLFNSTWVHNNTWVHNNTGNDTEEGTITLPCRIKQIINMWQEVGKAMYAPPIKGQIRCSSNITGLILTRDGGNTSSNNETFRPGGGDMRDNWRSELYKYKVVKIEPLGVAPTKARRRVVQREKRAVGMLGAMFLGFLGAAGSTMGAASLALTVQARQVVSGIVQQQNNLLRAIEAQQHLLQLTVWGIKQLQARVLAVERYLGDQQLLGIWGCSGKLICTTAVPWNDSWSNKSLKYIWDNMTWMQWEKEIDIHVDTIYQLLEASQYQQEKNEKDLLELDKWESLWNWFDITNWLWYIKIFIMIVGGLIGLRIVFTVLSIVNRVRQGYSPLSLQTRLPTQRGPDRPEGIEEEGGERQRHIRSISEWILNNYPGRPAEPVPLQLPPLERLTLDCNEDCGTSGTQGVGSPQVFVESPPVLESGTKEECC

Molecule	Tm [1]	EC50 [2]	Activity [3]	EC50 [4]	Activity [5]	Activity [6]	Activity [7]	CC50 at 48 h [8]
Ac-IEALIRAAQEQQEKNEAALREL-NH2	48.2 °C							
CC[C@H](C)[C@H](NC(C)=O)C(=O)N[C@@H](CCC(=O)O)C(=O)N[C@@H](C)C(=O)N[C@@H](CC(C)C)C(=O)N[C@H](C(=O)NC1CCSCc2cccc(c2)CSCCC(C(=O)N[C@@H](CCC(N)=O)C(=O)N[C@@H](CCC(N)=O)C(=O)N[C@@H](CCC(=O)O)C(=O)N[C@@H](CCCCN)C(=O)N[C@@H](CC(N)=O)C(=O)N[C@@H](CCC(=O)O)C(=O)N[C@@H](C)C(=O)N[C@@H](C)C(=O)N[C@@H](CC(C)C)C(=O)N[C@@H](CCCNC(=N)N)C(=O)N[C@@H](CCC(=O)O)C(=O)N[C@@H](CC(C)C)C(N)=O)NC(=O)[C@H](CCC(N)=O)NC(=O)[C@H](C)NC(=O)[C@H](C)NC1=O)[C@@H](C)CC (stereo partly specified) (Ac-IEALI[ξhCys]AAQ[ξhCys]QQEKNEAALREL-NH2; linker 6-10 via mXylylene)	52.4 °C	44.4 nM	Active	69.1 nM	8.4 kDa	Active	Active	
CC[C@H](C)[C@H](NC(C)=O)C(=O)N[C@@H](CCC(=O)O)C(=O)N[C@@H](C)C(=O)N[C@@H](CC(C)C)C(=O)N[C@H](C(=O)NC1CCSCc2cccc(c2)CSCCC(C(=O)N[C@@H](CCC(N)=O)C(=O)N[C@@H](CCC(N)=O)C(=O)N[C@@H](CCCNC(=N)N)C(=O)N[C@@H](CCCCN)C(=O)N[C@@H](CC(N)=O)C(=O)N[C@@H](CCC(=O)O)C(=O)N[C@@H](CCC(=O)O)C(=O)N[C@@H](C)C(=O)N[C@@H](CC(C)C)C(=O)N[C@@H](CCCNC(=N)N)C(=O)N[C@@H](CCC(=O)O)C(=O)N[C@@H](CC(C)C)C(N)=O)NC(=O)[C@H](CCC(N)=O)NC(=O)[C@H](C)NC(=O)[C@H](C)NC1=O)[C@@H](C)CC (stereo partly specified) (Ac-IEALI[ξhCys]AAQ[ξhCys]QQRKNEEALREL-NH2; linker 6-10 via mXylylene)	56.9 °C	18.4 nM	Active	27.7 nM	18.7 kDa	Active	Active	> 800000 nM

From ChEMBL document CHEMBL4334495, “Design and Biological Evaluation of m-Xylene Thioether-Stapled Short Helical Peptides Targeting the HIV-1 gp41 Hexameric Coiled-Coil Fusion Complex” (J Med Chem, 2019)
